Data on 3 compounds can be found in US7294496B1, “Cloned human lysophospholipase” (The Regents of the University of California, priority 2000, dated 2007).

The target in assay [1] is T1, human recombinant LysoPLA (Homo sapiens, UniProt O75608, F152L).
T1 construct: made in house; host or cells: E. coli BL21(DE3)
It is filed as biochemical.

Assay [2] addresses mouse LysoPLA (Mus musculus, UniProt P97823). Kind of assay: Inhibition of mouse LysoPLA. The assay is classed as biochemical. As to the method:
Various concentrations of each inhibitor (BioMol) were prepared in DMSO. 5 μl of each inhibitor was added to 480 μl of LysoPC substrate (125 μM Ly-soPC in the assay buffer). Enzyme (either mouse or human PLA) was added to the substrate-inhibitor mixture to start the reaction, which was incubated at 40° C. for 30 min. Control experiments were performed with the same amount of enzyme with 5 μl DMSO in the incubation mixture. The reversibility of the inhibition was tested by pre-incubation of the enzyme in the presence or absence of the inhibitor, followed by overnight dialysis in the assay buffer. The recovery of the enzyme activity as a function of time was then followed. Each data point represents an average of duplicates.

Setting [3] is: mouse enzyme, 125 μM LysoPC, similar results as human enzyme.

SMILES strings stand for the structures. Read-outs that look alike come from different tables or passages of the source.

mouse LysoPLA, sequence (P97823 whole entry): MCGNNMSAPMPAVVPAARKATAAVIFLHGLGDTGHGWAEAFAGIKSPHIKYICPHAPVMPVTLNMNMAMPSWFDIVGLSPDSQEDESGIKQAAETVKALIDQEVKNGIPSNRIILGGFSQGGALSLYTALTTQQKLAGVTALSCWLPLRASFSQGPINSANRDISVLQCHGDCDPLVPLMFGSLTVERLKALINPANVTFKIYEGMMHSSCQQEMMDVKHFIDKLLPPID
T1 sequence (O75608 whole entry F152L): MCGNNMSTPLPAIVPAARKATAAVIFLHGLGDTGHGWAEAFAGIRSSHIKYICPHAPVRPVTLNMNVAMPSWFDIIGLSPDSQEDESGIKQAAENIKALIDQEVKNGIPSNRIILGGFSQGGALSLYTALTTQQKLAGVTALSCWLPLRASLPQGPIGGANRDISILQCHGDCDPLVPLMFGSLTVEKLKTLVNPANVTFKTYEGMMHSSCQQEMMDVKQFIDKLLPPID

For the compound `O=C1O/C(=C/Br)CCC1c1cccc2ccccc12` (stereo not drawn) [BEL, bromoenol lactone], the “inhibition of LysoPLA activity (in words)” value (shortened to “inhibition”) in assay [1] (human enzyme, 125 μM LysoPC) is on record as “neither of them inhibited the LysoPLA activity well”; in assay [2] (setting [3]), “neither of them inhibited the LysoPLA activity well”.
As to `CCCCCCCCCCCCCCCCOC[C@@H](O)COP(=O)([O-])OCC[N+](C)(C)C` [LysoPAF], the “inhibition” value in assay [1] and in assay [2] was “not a good inhibitor” each time.
With `CCCCCCCCCCCCCCCC(=O)C(F)(F)F` [PACOCF3, palmitoyl tri£uoromethyl ketone], the “inhibition” value in assay [1] (human enzyme, 125 μM LysoPC) is on record as “neither of them inhibited the LysoPLA activity well”; in assay [2] (setting [3]), “neither of them inhibited the LysoPLA activity well”.
